Earlier results on 1 molecule are cited in US20160067227A1, “PHARMACEUTICAL COMBINATIONS FOR THE TREATMENT OF METABOLIC DISORDERS” (Boehringer Ingelheim International GmbH, priority 2012, published 2016).

For the data set the following is noted: metformin on its own, in the diabetic.

As for `CN(C)C(=N)N=C(N)N` [metformin], the “average improvement in the HbA1c value” was 1.0-1.5%.
